Reference: PMC12797170, “Potent Competitive Inhibitors of Ecto-5′-nucleotidase (CD73) based on 6‑(Het)aryl-7-deazapurine Ribonucleoside 5′‑O‑Bisphosphonates” (ACS Pharmacology & Translational Science, 2025)
≈ marks a conversion by molar mass, not a printed value. Each block holds one compound with its values, some of them ahead of it.

Tests used:
[1] = target: T1, recombinant human CD73 (hCD73) (Homo sapiens, UniProt P21589); experiment: CD73 activity assay on recombinant human CD73; assay type: biochemical; conditions: ΔGexp = RT ln Ki
T1 sequence (P21589 27-574): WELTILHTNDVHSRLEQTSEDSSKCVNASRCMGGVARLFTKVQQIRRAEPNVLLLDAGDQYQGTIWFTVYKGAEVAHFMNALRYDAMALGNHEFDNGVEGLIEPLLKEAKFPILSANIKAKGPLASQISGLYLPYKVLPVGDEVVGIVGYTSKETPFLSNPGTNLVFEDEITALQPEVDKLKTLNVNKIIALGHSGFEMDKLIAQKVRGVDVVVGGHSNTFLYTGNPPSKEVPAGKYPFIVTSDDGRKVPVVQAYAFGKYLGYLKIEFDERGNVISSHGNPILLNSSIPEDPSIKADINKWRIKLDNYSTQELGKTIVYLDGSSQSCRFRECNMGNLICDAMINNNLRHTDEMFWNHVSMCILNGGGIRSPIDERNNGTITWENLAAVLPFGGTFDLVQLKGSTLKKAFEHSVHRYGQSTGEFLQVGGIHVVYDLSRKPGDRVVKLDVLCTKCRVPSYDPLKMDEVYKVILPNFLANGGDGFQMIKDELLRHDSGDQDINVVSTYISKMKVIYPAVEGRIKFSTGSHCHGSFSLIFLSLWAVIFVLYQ

[2] = Plasma protein binding, equilibrium dialysis, human plasma; assay type: in vitro ADME; conditions: undiluted plasma
Experimental: (§1) Plasma protein binding of the investigated compounds was determined using equilibrium dialysis in single-use Rapid Equilibrium Dialysis devices with an 8 kDa molecular weight cutoff (Thermo Fisher Scientific), following the manufacturer’s protocol. In brief, 50 μL of undiluted human plasma (Biowest), spiked with the test compound at a final concentration of 100 μM, was added to the sample chamber, while 300 μL of phosphate-buffered saline (PBS) was placed in the buffer chamber. Devices were incubated for 4 h at 37 °C with gentle shaking.
(§2) After dialysis, 7.5 μL aliquots from both the plasma and buffer chambers were transferred directly into wells of a 384-well plate. To equalize the matrices for downstream processing, 7.5 μL of PBS was added to each plasma aliquot, and 7.5 μL of plasma was added to each buffer aliquot. Proteins were precipitated by adding four volumes of ice-cold methanol to each well, followed by thorough mixing and incubation at – 20 °C for 30 min. Plates were then stored overnight at 8 °C. Prior to analysis, the plate was centrifuged at 2,000 × g for 20 min at 8 °C. […] The fraction of unbound compound was calculated using the following equations: %Free=c(bufferchamber)/c(plasmachamber)*100% %Bound=100%−%Free

[3] = Plasma protein binding, mouse plasma; assay type: in vitro ADME; conditions: mouse, plasma, mouse plasma protein binding; read-out: PPB (m) (converted)
Experimental: as §1, §2

[4] = Kinetic solubility in PBS; assay type: physicochemical; conditions: phosphate-buffered saline, pH 7.4, aqueous buffer, kinetic from dmso stock
Experimental: Test compounds were prepared as 10 mM stock solutions in DMSO and diluted in phosphate-buffered saline (PBS, pH 7.4) to a 100 μM solution, which was then aliquoted in duplicate. The duplicate samples were incubated in Multiscreen PCF Filter Plates (Merck Millipore) with sealed bottom at room temperature on a shaker for 2 h to allow equilibration. Following incubation, the samples were centrifuged into nonsterile, flat-bottom 96-well plates at 2,200 RCF for 12 min. Supernatants were then diluted 1:99 in a solution of 50% acetonitrile containing 0.1% DMSO. The diluted samples were transferred to 384-well Echo plates, which contained prespotted calibration standards prepared by Echo transfer of 10 mM and 1 mM DMSO stock solutions, resulting in calibration points ranging from 0.05 to 4 μM. Samples and standards were subsequently analyzed by Echo-MS.

[5] = Microsomal stability assay, human liver microsomes; assay type: in vitro ADME; conditions: for Mics (hu) comp remaining 60 min: 10 μM; for microsomal CLint at 10 µM: pooled liver microsomes, pH 7.4, read-out: Mics (hu) CLint
[6] = Microsomal stability assay, mouse liver microsomes; assay type: in vitro ADME; conditions: for Mics (m) comp remaining 60 min: 10 μM; for microsomal CLint at 10 µM: pooled liver microsomes, pH 7.4, read-out: Mics (m) CLint
[7] = system: CCRF-CEM; experiment: In vitro cytotoxic activity; assay type: cell-based; conditions: Homo sapiens
Experimental: (§3) All the compounds were also tested for their in vitro cytotoxic activity on a small panel of four cancer cell lines (CCRF-CEM, HepG2, HeLa S3, HL-60) and nonmalignant human dermal fibroblasts (NHDF).

[8] = system: HL-60; experiment: In vitro cytotoxic activity; assay type: cell-based; conditions: Homo sapiens
Experimental: as §3

[9] = system: HeLa S3; experiment: In vitro cytotoxic activity; assay type: cell-based; conditions: Homo sapiens
Experimental: as §3

[10] = system: HepG2; experiment: In vitro cytotoxic activity; assay type: cell-based; conditions: Homo sapiens
Experimental: as §3

[11] = system: nonmalignant human dermal fibroblasts (NHDF); experiment: In vitro cytotoxic activity; assay type: cell-based
Experimental: as §3

[12] = in vitro; conditions: human, plasma
[13] = in vitro; conditions: mouse, plasma
[14] = human plasma protein binding, read-out: PPB (hu) (converted)
[15] = Tables 1 and 3, human plasma as printed in footnote, read-out: fup, fraction unbound in human plasma

dG_exp, experimental binding free energy [1]: –13.8 kcal/mol | fraction unbound at 4 h, 100 µM [2, 14]: 0.037 | fraction unbound at 4 h, 100 µM [3]: 0.305 | solubility at 2 h [4]: > 100 µM | Mics (hu) comp remaining 60 min [5]: 100% | microsomal CLint at 10 µM [5]: < 1 µL/min/mg | Mics (m) comp remaining 60 min [6]: 97% | microsomal CLint at 10 µM [6]: 2 µL/min/mg | half-life at 10 µM [12]: > 2 h | half-life at 10 µM [13]: > 2 h
Compound: Nc1nc(-c2ccc3ccccc3c2)c2ccn([C@@H]3O[C@H](COP(=O)(O)CP(=O)(O)O)[C@@H](O)[C@H]3O)c2n1 [11C.7]
IC50 [7]: > 10 µM | IC50 [8]: > 10 µM | IC50 [9]: > 10 µM | IC50 [10]: > 10 µM | IC50 [11]: > 10 µM

dG_exp, experimental binding free energy [1]: –13.9 kcal/mol | fraction unbound at 4 h, 100 µM [2, 14]: 0.058 | fraction unbound at 4 h, 100 µM [3]: 0.391 | solubility at 2 h [4]: 87 µM (≈ 47 µg/mL) | Mics (hu) comp remaining 60 min [5]: 100% | microsomal CLint at 10 µM [5]: < 1 µL/min/mg | Mics (m) comp remaining 60 min [6]: 97% | microsomal CLint at 10 µM [6]: 2 µL/min/mg | half-life at 10 µM [12]: > 2 h | half-life at 10 µM [13]: > 2 h
Compound: Nc1nc(-c2cc3ccccc3o2)c2ccn([C@@H]3O[C@H](COP(=O)(O)CP(=O)(O)O)[C@@H](O)[C@H]3O)c2n1 [11C.8]
IC50 [7]: > 10 µM | IC50 [8]: > 10 µM | IC50 [9]: > 10 µM | IC50 [10]: > 10 µM | IC50 [11]: > 10 µM

dG_exp, experimental binding free energy [1]: –13.4 kcal/mol | fraction unbound at 4 h, 100 µM [2, 15]: 0.14 | fraction unbound at 4 h, 100 µM [2, 14]: ≤ 0.01 | fraction unbound at 4 h, 100 µM [3]: 0.136 | solubility at 2 h [4]: 79 µM (≈ 44.7 µg/mL) | Mics (hu) comp remaining 60 min [5]: 104% | microsomal CLint at 10 µM [5]: < 1 µL/min/mg | microsomal CLint at 10 µM [6]: < 1 µL/min/mg | half-life at 10 µM [12]: > 2 h | half-life at 10 µM [13]: > 2 h
Compound: COc1nc(-c2ccc3ccccc3c2)c2ccn([C@@H]3O[C@H](COP(=O)(O)CP(=O)(O)O)[C@@H](O)[C@H]3O)c2n1 [21F.7, [(5-{[2-Methoxy-4-(naphthalen-2-yl)-7H-pyrrolo[2,3-d]pyrimidin-7-yl]-β-D-ribofuranosyl}oxy)phosphonomethyl]phosphonic Acid]
IC50 [7]: > 10 µM | IC50 [8]: > 10 µM | IC50 [9]: > 10 µM | IC50 [10]: > 10 µM | IC50 [11]: > 10 µM

dG_exp, experimental binding free energy [1]: –12.7 kcal/mol | fraction unbound at 4 h, 100 µM [2, 15]: 0.11 | fraction unbound at 4 h, 100 µM [2, 14]: ≤ 0.01 | fraction unbound at 4 h, 100 µM [3]: 0.112 | solubility at 2 h [4]: 84 µM (≈ 47.4 µg/mL) | Mics (hu) comp remaining 60 min [5]: 106% | microsomal CLint at 10 µM [5]: < 1 µL/min/mg | microsomal CLint at 10 µM [6]: 3 µL/min/mg | half-life at 10 µM [12]: > 2 h | half-life at 10 µM [13]: > 2 h
Compound: CNc1nc(-c2ccc3ccccc3c2)c2ccn([C@@H]3O[C@H](COP(=O)(O)CP(=O)(O)O)[C@@H](O)[C@H]3O)c2n1 [22G.7, [(5-{[2-(N-Methylamino)-4-(naphthalen-2-yl)-7H-pyrrolo[2,3-d]pyrimidin-7-yl]-β-D-ribofuranosyl}oxy)phosphonomethyl]phosphonic Acid]
IC50 [7]: > 10 µM | IC50 [8]: 8.1 µM | IC50 [9]: > 10 µM | IC50 [10]: > 10 µM | IC50 [11]: > 10 µM

dG_exp, experimental binding free energy [1]: –14.3 kcal/mol | fraction unbound at 4 h, 100 µM [2, 14]: 0.008 | fraction unbound at 4 h, 100 µM [3]: 0.286 | solubility at 2 h [4]: 76 µM (≈ 41.3 µg/mL) | Mics (hu) comp remaining 60 min [5]: 107% | microsomal CLint at 10 µM [5]: < 1 µL/min/mg | microsomal CLint at 10 µM [6]: < 1 µL/min/mg | half-life at 10 µM [12]: > 2 h | half-life at 10 µM [13]: > 2 h
Compound: O=P(O)(O)CP(=O)(O)OC[C@H]1O[C@@H](n2ccc3c(-c4cc5ccccc5o4)nc(F)nc32)[C@H](O)[C@@H]1O [14D.8]
IC50 [7]: > 10 µM | IC50 [8]: > 10 µM | IC50 [9]: > 10 µM | IC50 [10]: > 10 µM | IC50 [11]: > 10 µM

The next lines start with the compound.

Compound: CC1(C)Cc2cc(-c3nc(Cl)nc4c3ccn4[C@@H]3O[C@H](COP(=O)(O)CP(=O)(O)O)[C@@H](O)[C@H]3O)ccc2O1 [7B.30]
dG_exp, experimental binding free energy [1]: –15.6 kcal/mol | fraction unbound at 4 h, 100 µM [2, 14]: ≤ 0.01 | fraction unbound at 4 h, 100 µM [3]: 0.229 | solubility at 2 h [4]: 86 µM (≈ 50.7 µg/mL) | Mics (hu) comp remaining 60 min [5]: 102% | microsomal CLint at 10 µM [5]: < 1 µL/min/mg | Mics (m) comp remaining 60 min [6]: 88% | microsomal CLint at 10 µM [6]: 6 µL/min/mg | IC50 [7]: > 10 µM | IC50 [8]: > 10 µM | IC50 [9]: > 10 µM | IC50 [10]: > 10 µM | IC50 [11]: > 10 µM | half-life at 10 µM [12]: > 2 h | half-life at 10 µM [13]: > 2 h

Compound: O=P(O)(O)CP(=O)(O)OC[C@H]1O[C@@H](n2ccc3c(-c4ccc5c(c4)CCO5)ncnc32)[C@H](O)[C@@H]1O [4A.14]
dG_exp, experimental binding free energy [1]: –12.9 kcal/mol | fraction unbound at 4 h, 100 µM [2, 14]: 0.062 | fraction unbound at 4 h, 100 µM [3]: 0.547 | solubility at 2 h [4]: > 100 µM | Mics (hu) comp remaining 60 min [5]: 112% | microsomal CLint at 10 µM [5]: < 1 µL/min/mg | Mics (m) comp remaining 60 min [6]: 94% | microsomal CLint at 10 µM [6]: 3 µL/min/mg | IC50 [7]: > 10 µM | IC50 [8]: 6.6 µM | IC50 [9]: > 10 µM | IC50 [10]: 6.3 µM | IC50 [11]: 5.6 µM | half-life at 10 µM [12]: > 2 h | half-life at 10 µM [13]: > 2 h

Compound: COc1ccc2cc(-c3nc(Cl)nc4c3ccn4[C@@H]3O[C@H](COP(=O)(O)CP(=O)(O)O)[C@@H](O)[C@H]3O)ccc2c1 [7B.35]
dG_exp, experimental binding free energy [1]: –15.4 kcal/mol | fraction unbound at 4 h, 100 µM [2, 14]: ≤ 0.01 | fraction unbound at 4 h, 100 µM [3]: 0.088 | solubility at 2 h [4]: 84 µM (≈ 50.4 µg/mL) | Mics (hu) comp remaining 60 min [5]: 106% | microsomal CLint at 10 µM [5]: < 2 µL/min/mg | Mics (m) comp remaining 60 min [6]: 103% | microsomal CLint at 10 µM [6]: < 2 µL/min/mg | IC50 [7]: > 10 µM | IC50 [8]: > 10 µM | IC50 [9]: > 10 µM | IC50 [10]: > 10 µM | IC50 [11]: > 10 µM | half-life at 10 µM [12]: > 2 h | half-life at 10 µM [13]: > 2 h
